Key:
[1] = test system: KMS-12-PE Bcl-2 G101V; experiment: In vitro cytotoxicity CellTiter-Glo 48 h, KMS-12-PE Bcl-2 G101V; type: cell-based; conditions: for Ratio (G101V/WT): C50 KMS-12-PE Bcl-2 G101V over C50 KMS-12-PE Bcl-2 WT; for IC50: 48 h, CellTiter-Glo, C50 = concentration needed to reach 50% of the cellular viability
Method in brief: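 KMS-12-PE myeloma cells were lentivirally transduced with wild-type or G101V-mutant Bcl-2 and sorted by TagRFP. They were exposed to compounds as 11-point dose responses for 48 h at 37 °C, 5% CO2. Viability was read by CellTiter-Glo ATP luminescence, and C50 was the concentration giving 50% viability.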

[2] = target: CYP3A4 (Homo sapiens (Human), UniProt P08684); experiment: CYP3A4 inhibition determination in hepatic human microsomes; type: in vitro ADME; conditions: LC/MS-MS of specific metabolite
CYP3A4, sequence (P08684 whole entry): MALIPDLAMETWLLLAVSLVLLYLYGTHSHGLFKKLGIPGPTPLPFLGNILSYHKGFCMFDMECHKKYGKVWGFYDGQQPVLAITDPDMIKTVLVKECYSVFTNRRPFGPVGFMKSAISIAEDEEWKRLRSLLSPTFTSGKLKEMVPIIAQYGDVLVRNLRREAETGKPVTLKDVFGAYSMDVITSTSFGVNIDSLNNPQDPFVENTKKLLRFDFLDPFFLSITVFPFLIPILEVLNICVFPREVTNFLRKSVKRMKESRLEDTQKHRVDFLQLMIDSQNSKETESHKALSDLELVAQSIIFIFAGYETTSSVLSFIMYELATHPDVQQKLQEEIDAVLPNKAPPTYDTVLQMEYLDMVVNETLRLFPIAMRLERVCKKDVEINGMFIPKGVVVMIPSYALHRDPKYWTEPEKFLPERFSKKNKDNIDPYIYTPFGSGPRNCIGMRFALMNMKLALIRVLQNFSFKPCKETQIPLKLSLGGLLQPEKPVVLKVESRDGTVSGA
Procedure: The inhibitory potential was determined on CYP3 Å4 enzyme using hepatic human microsomes. A range of concentrations (adapted based on the solubility) of the tested compound were incubated in presence of a substrate having a specific metabolite of CYP3 Å4 enzyme.
Then, the formation of the metabolite was quantified using LC/MS-MS analysis and a curve corresponding to the concentration of the metabolite in function of the concentration of the test compound allowed to the calculation of the IC50 value.

[3] = test system: platelets; experiment: Platelet depletion in SCID mice; type: in vivo; conditions: 25 mg/kg IV bolus, vs control group; for Platelet loss (%) 6 h: 6 h after dosing; for Platelet loss (%) 24 h: 24 h after dosing
Procedure: (§1) Pharmacokinetic (PK) and platelet toxicity were investigated in SCID mice. Compounds were administered at 25 mg/kg by IV bolus, and formulated in PEG/Ethanol/NaCl 0.9% (40/10/50 v/v/v).
(§2) Blood samples (3 animals/time point and 3 time points/animal) were collected over 24 h after dosing: 0.05 h, 0.5 h, 1 h, 3 h, 6 h and 24 h for PK and 6 h and 24 h for platelets.
(§3) PK samples were analyzed by liquid chromatography using tandem mass spectrometry detection (LC-MS/MS) and platelet count (109/L) was measured using an hematology analyzer. Percentage of platelet loss was calculated at both time points (T+6 h and 24 h) as compared to a control group of 6 animals. PK parameters (Cinf and AUC24, which correspond to the concentration at the end of bolus administration and the area under curve over 24 h, respectively) were also determined using a non-compartmental analysis.

[4] = Pharmacokinetics in SCID mice; type: in vivo; conditions: 25 mg/kg IV bolus; for PK parameters Cinf: concentration at the end of bolus administration; for AUC: mouse, blood, area under curve over 24 h, read-out: PK parameters AUC24
Procedure: as §1, §2, §3

Row | SMILES | Ratio (G101V/WT) [1] | IC50 ([1]; Homo sapiens, KMS-12-PE) | IC50 [2] | Platelet loss (%) 6 h [3] | Platelet loss (%) 24 h [3] | PK parameters Cinf [4] | AUC [4] | IC50 [1]
1 | Cc1c(N(C(=O)c2cc(-c3cc4c(cc3C(=O)N3Cc5ccccc5C[C@H]3C)CN(C(=O)Cc3ccc(OCCN5CCOCC5)cc3)CC4)n(C)c2C)c2ccc(O)cc2)cc(C#N)n1C [Example 21, N-(5-cyano-1,2-dimethyl-1H-pyrrol-3-yl)-N-(4-hydroxyphenyl)-1,2-dimethyl-5-{7-[(3R)-3-methyl-1,2,3,4-tetrahydroisoquinoline-2-carbonyl]-2-(2-{4-[2-(morpholin-4-yl)ethoxy]phenyl}acetyl)-1,2,3,4-tetrahydroisoquinolin-6-yl}-1H-pyrrole-3-carboxamide] | 4.02 | 0.023 µM | 6200 nM | 58.4% | 30.3% | 21.0 µM | 12 µM·h | –
2 | Cc1c(N(C(=O)c2cc(-c3cc4c(cc3C(=O)N3Cc5ccccc5C[C@H]3C)CN(C(=O)Cc3ccc(OCCC5CCOCC5)cc3)CC4)n(C)c2C)c2ccc(O)cc2)cc(C#N)n1C [Example 27, N-(5-cyano-1,2-dimethyl-1H-pyrrol-3-yl)-N-(4-hydroxyphenyl)-1,2-dimethyl-5-{7-[(3R)-3-methyl-1,2,3,4-tetrahydroisoquinoline-2-carbonyl]-2-(2-{4-[2-(oxan-4-yl)ethoxy]phenyl}acetyl)-1,2,3,4-tetrahydroisoquinolin-6-yl}-1H-pyrrole-3-carboxamide] | 4.23 | 0.0143 µM | – | 18.6% | 11.0% | 12.2 µM | 19.5 µM·h | –
3 | Cc1c(N(C(=O)c2cc(-c3cc4c(cc3C(=O)N3Cc5ccccc5C[C@H]3CN3CCCCC3)CN(C(=O)Cc3ccc(OCCN5CCOCC5)cc3F)CC4)n(C)c2C)c2ccc(O)cc2)cc(C#N)n1C [Example 43, N-(5-cyano-1,2-dimethylpyrrol-3-yl)-5-[2-(2-{2-fluoro-4-[2-(morpholin-4-yl)ethoxy]phenyl}acetyl)-7-{[(3S)-3-(piperidin-1-ylmethyl)-3,4-dihydro-1H-isoquinolin-2-yl]carbonyl}-3,4-dihydro-1H-isoquinolin-6-yl]-N-(4-hydroxyphenyl)-1,2-dimethylpyrrole-3-carboxamide] | 4.82 | – | – | 25.3% | 9.2% | 15.4 µM | 16.9 µM·h | 0.0232 µM
4 | Cc1c(N(C(=O)c2cc(-c3cc4c(cc3C(=O)N3Cc5ccccc5C[C@H]3C)CN(C(=O)Cc3ccc(N5CCN6CCOC[C@@H]6C5)cc3F)CC4)n(C)c2C)c2ccc(O)cc2)cc(C#N)n1C [Example 45, 5-[2-(2-{4-[(9aS)-octahydropyrazino[2,1-c][1,4]oxazin-8-yl]-2-fluorophenyl}acetyl)-7-[(3R)-3-methyl-1,2,3,4-tetrahydroisoquinoline-2-carbonyl]-1,2,3,4-tetrahydroisoquinolin-6-yl]-N-(5-cyano-1,2-dimethyl-1H-pyrrol-3-yl)-N-(4-hydroxyphenyl)-1,2-dimethyl-1H-pyrrole-3-carboxamide] | 6.47 | 0.0324 µM | – | 22.0% | 27.6% | 40.8 µM | 34.2 µM·h | –
5 | Cc1c(N(C(=O)c2cc(-c3cc4c(cc3C(=O)N3Cc5ccccc5C[C@H]3C)CN(C(=O)Cc3ccc(CCN5CCC(F)(F)CC5)cc3)CC4)n(C)c2C)c2ccc(O)cc2)cc(C#N)n1C [Example 51, N-(5-cyano-1,2-dimethylpyrrol-3-yl)-5-[2-(2-{4-[2-(4,4-difluoropiperidin-1-yl)ethyl]phenyl}acetyl)-7-{[(3R)-3-methyl-3,4-dihydro-1H-isoquinolin-2-yl]carbonyl}-3,4-dihydro-1H-isoquinolin-6-yl]-N-(4-hydroxyphenyl)-1,2-dimethylpyrrole-3-carboxamide] | 5.07 | 0.0362 µM | – | – | – | – | – | –
6 | COC[C@@H]1Cc2ccccc2CN1C(=O)c1cc2c(cc1-c1cc(C(=O)N(c3ccc(O)cc3)c3cc(C#N)n(C)c3C)c(C)n1C)CCN(C(=O)Cc1ccc(OCCC3CCOCC3)cc1F)C2 [Example 52, N-(5-cyano-1,2-dimethylpyrrol-3-yl)-5-[2-(2-{2-fluoro-4-[2-(oxan-4-yl)ethoxy]phenyl}acetyl)-7-{[(3S)-3-(methoxymethyl)-3,4-dihydro-1H-isoquinolin-2-yl]carbonyl}-3,4-dihydro-1H-isoquinolin-6-yl]-N-(4-hydroxyphenyl)-1,2-dimethylpyrrole-3-carboxamide] | 4.08 | 0.0139 µM | – | 34.3% | 33.0% | 18.0 µM | 33.7 µM·h | –
7 | Cc1c(N(C(=O)c2cc(-c3cc4c(cc3C(=O)N3Cc5ccccc5C[C@H]3C)CN(C(=O)Cc3ccc(OCCN5CCC(F)CC5)cc3)CC4)n(C)c2C)c2ccc(O)cc2)cc(C#N)n1C [Example 53, N-(5-cyano-1,2-dimethyl-1H-pyrrol-3-yl)-5-[2-(2-{4-[2-(4-fluoropiperidin-1-yl)ethoxy]phenyl}acetyl)-7-[(3R)-3-methyl-1,2,3,4-tetrahydroisoquinoline-2-carbonyl]-1,2,3,4-tetrahydroisoquinolin-6-yl]-N-(4-hydroxyphenyl)-1,2-dimethyl-1H-pyrrole-3-carboxamide] | 5.12 | 0.0337 µM | – | – | – | – | – | –
8 | Cc1c(N(C(=O)c2cc(-c3cc4c(cc3C(=O)N3Cc5ccccc5C[C@H]3C)CN(C(=O)Cc3ccc(OCCN5CCSCC5)cc3)CC4)n(C)c2C)c2ccc(O)cc2)cc(C#N)n1C [Example 55, N-(5-cyano-1,2-dimethyl-1H-pyrrol-3-yl)-N-(4-hydroxyphenyl)-1,2-dimethyl-5-{7-[(3R)-3-methyl-1,2,3,4-tetrahydroisoquinoline-2-carbonyl]-2-(2-{4-[2-(thiomorpholin-4-yl)ethoxy]phenyl}acetyl)-1,2,3,4-tetrahydroisoquinolin-6-yl}-1H-pyrrole-3-carboxamide] | 4.22 | 0.026 µM | – | 26.9% | 33.9% | 17.3 µM | 11.4 µM·h | –
9 | Cc1c(N(C(=O)c2cc(-c3cc4c(cc3C(=O)N3Cc5ccccc5C[C@H]3CN3CCCCC3)CN(C(=O)Cc3ccc(OCCC5CCOCC5)cc3)CC4)n(C)c2C)c2ccc(O)cc2)cc(C#N)n1C [Example 66, N-(5-cyano-1,2-dimethylpyrrol-3-yl)-N-(4-hydroxyphenyl)-1,2-dimethyl-5-[2-(2-{4-[2-(oxan-4-yl)ethoxy]phenyl}acetyl)-7-{[(3S)-3-(piperidin-1-ylmethyl)-3,4-dihydro-1H-isoquinolin-2-yl]carbonyl}-3,4-dihydro-1H-isoquinolin-6-yl]pyrrole-3-carboxamide] | 5.46 | 0.033 µM | – | – | – | – | – | –
10 | Cc1c(C(=O)N(c2ccc(O)cc2)c2cc(C#N)n(C(F)F)c2C)cc(-c2cc3c(cc2C(=O)N2Cc4ccccc4C[C@H]2CN2CCCCC2)CN(C(=O)Cc2ccc(OCCN4CCOCC4)cc2)CC3)n1C [Example 77] | 5.1 | 0.0487 µM | > 5000 nM | – | – | – | – | –
11 | Cc1c(C(=O)N(c2ccc(O)cc2)c2cc(C#N)n(C(F)F)c2C)cc(-c2cc3c(cc2C(=O)N2Cc4ccccc4C[C@H]2CN2CCCCC2)CN(C(=O)Cc2ccc(OCCN4CCOCC4)cc2F)CC3)n1C [Example 78, N-[5-cyano-1-(difluoromethyl)-2-methylpyrrol-3-yl]-5-[2-(2-{2-fluoro-4-[2-(morpholin-4-yl)ethoxy]phenyl}acetyl)-7-{[(3S)-3-(piperidin-1-ylmethyl)-3,4-dihydro-1H-isoquinolin-2-yl]carbonyl}-3,4-dihydro-1H-isoquinolin-6-yl]-N-(4-hydroxyphenyl)-1,2-dimethylpyrrole-3-carboxamide] | 5.98 | 0.0299 µM | > 5000 nM | – | – | – | – | –
12 | Cc1c(N(C(=O)c2cc(-c3cc4c(cc3C(=O)N3Cc5ccccc5C[C@H]3CN3CCC[C@H](C)C3)CN(C(=O)Cc3ccc(OCCN5CCOCC5)cc3F)CC4)n(C)c2C)c2ccc(O)cc2)cc(C#N)n1C [Example 107] | 4.47 | 0.0166 µM | – | – | – | – | – | –
